The numbers were not newly measured in US12532880B2, “Cryopreservation of cell monolayers” (priority 2018, dated 2026), which cites them from elsewhere.

The subject of data set [1] is intact human articular cartilage. The conditions noted are these: chondroitin sulfate added to the vitrification solution.
Data set [2] concerns porcine corneal endothelium. Conditions: endothelium cryopreserved in the presence of 2% CS.

Turning to chondroitin sulfate [CS], the Cell recovery in data set [1] is listed as 75.4%. In addition, the “Loss of viability in post-thaw culture” value in data set [2] is recorded as 33%.
